{"source": "patent US20230381314A1", "about": "“ATTENUATED CANCER CELLS AND METHODS RELATED THERETO” (priority 2020, published 2023)", "key": {"[1]": {"system": "AML model (C1498 cells)", "experiment": "In vivo treatment of AML with adjuvant (chemo-immunotherapy)", "parameters": "species or system C57BL/6J mice", "conditions": "leukemia-bearing mice, up to 21 days post-tumor inoculation, DOX 5 mg/kg, MPLA 20 μg", "procedure": "AML model was established by intravenous injection of 5×10^6 C1498 cells on day 0. On day 8 and day 15, saline, LNT cell+Adjuvant, free DOX and LNT cell/DOX+Adjuvant were administrated intravenously with DOX dose of 5 mg/kg and adjuvant (monophosphoryl lipid A, MPLA) 20 μg per mouse. Specifically, MPLA was intravenously injected 10 h post-injection of LNT cell or LNT cell/DOX. The bioluminescence images of mice were captured every 3 days. The exposure time was 2 min. On day 13, 400 μL blood was collected via the orbital vein. 200 μL blood was treated with ACK buffer and centrifuged at 800 g for 8 min to obtain pellets of white blood cells. After staining with BV421-CD3, PE-CD4 and APC-CD8, the samples were analyzed by flow cytometry. Another 200 μL blood in blood serum collection tubes (BD Microtainer 365967) was centrifuged at 3000 rpm for 10 min. The upper serum was detected with the following ELISA kits: IFN-γ (BioLegend 430804) and TNF-α (BioLegend 430904)."}, "[2]": {"system": "C1498 cells", "quoted_text": "The in vitro cytotoxicity of LNT cell/DOX was determined via MTT assay. Briefly, C1498 cells were cultured in 24-well plate equipped with 1 μm Transwell with a cell density of 2×10^6 per well. And LNT cell/DOX solution with different DOX concentrations was added in the chamber of Transwell. 24 h later, the Transwell was discarded and 80 μL MTT solution (5 mg/mL) was added to each well. The cells were incubated for further 4 h at 37° C. The upper medium was gently aspirated and 600 μL DMSO was added to dissolve the formed formazan. OD value was detected at 490 nm. IC50 values were analyzed by Graphpad Prism 7.0."}}}
{"smiles": "COc1cccc2c1C(=O)c1c(O)c3c(c(O)c1C2=O)C[C@@](O)(C(=O)CO)C[C@@H]3O[C@H]1C[C@H](N)[C@H](O)[C@H](C)O1.Cl", "note": "[free DOX, Doxorubicin hydrochloride]", "values": [{"measurement": "AML progression (bioluminescence of AML cancer cells)", "setting": "[1]", "result": "partially inhibited"}, {"measurement": "IC50, in vitro cytotoxicity against C1498 cells", "setting": "[2]", "result": 0.32, "unit": "µg/mL"}]}
